Assay results reported in patent publication US20120301551A1, “COMPOUNDS AND COMPOSITIONS FOR TREATING NEURONAL DEATH OR NEUROLOGICAL DYSFUNCTION” (Neurotech Pharmaceuticals Co., Ltd., priority 2005, published 2012).
“Also recorded” adds a separate entry of the source.

Experiments:
[1] = system: mixed cortical cell cultures containing neurons and glia; assay: Fe2+-induced free radical neurotoxicity in mixed cortical cell cultures (LDH release); type: cell-based, mouse; settings: for Fe^2+-induced free radical neurotoxicity, effect in words: 50 μM Fe^2+, 24 hr, 2-Hydroxy-TTBA or 2-Hydroxy-TPEA at doses as low as 0.3 μM, vitamin E at higher doses, Li^+ 10 mM (legend 5 mM); for IC50: Mus musculus, Neuron, 50 μM FeCl2, neuronal death 24 hr later (LDH), read-out: IC50 (50% protection against Fe^2+-induced free radical neurotoxicity); for Fe^2+-induced neuronal death (oxidative stress), effect in words: FIG. 5A: 30 μM Fe^2+, 24 h, 1 μM 2-hydroxy TTBA (submicromolar), 5 mM Li^+
Method: (§1) Mouse cortical cell cultures (DIV 11-15) were exposed to 50 μM Fe^2+ or 10 mM BSO, alone or with inclusion of 5 mM Li^+. Neuronal death was analyzed 24 hr later by measuring levels of LDH released into the bathing medium, mean±SEM (n=9-12 culture wells per condition).
Mouse cortical cell cultures (DIV 11-15) were exposed to 30 μM Fe^2+ or 10 mM BSO, alone or in the presence of 1 μM 2-hydroxy TTBA, 10-100 μM vitamin E, or 5 mM Li^+.
(§2) For mixed neuron-glia culture, mouse cerebral cortices were removed from brains of the 11-15 day-old-fetal mice (E11-15), gently triturated and plated on 24 well plates (2×10^5 cells/plate) precoated with 100 μg/ml poly-D-lysine and 4 pg/ml laminin. Cultures were maintained at 37° C. in a humidified 5% CO2 atmosphere.
After 7-8 days in vitro (DIV 7-8), 10 μM cytosine arabinofuranoside (Ara-C) was included to halt overgrowth of glia. The drug treatment was carried on DIV 11-15 cortical cell culture.
Oxidative stress was induced by exposing mixed cortical cell cultures containing neurons and glia (DIV 11-15) to 50 μM FeCl2, a hydroxyl radical-producing transition metal via a Fenton reaction, or 10 mM DL-buthionine-[S,R]-sulfoximine (BSO), a glutathione depleting agent.

[2] = system: mixed cortical cell cultures containing neurons and glia; assay: BSO-induced free radical neurotoxicity in mixed cortical cell cultures (LDH release); type: cell-based, mouse; settings: for BSO-induced free radical neurotoxicity, effect in words: 10 mM BSO, 24 hr, 2-Hydroxy-TTBA or 2-Hydroxy-TPEA at doses as low as 0.3 μM, Li^+ 10 mM (legend 5 mM); for BSO-induced neuronal death (oxidative stress), effect in words: FIG. 5A: 10 mM BSO, 24 h, 1 μM 2-hydroxy TTBA (submicromolar), 5 mM Li^+
Method: Mouse cortical cell cultures (DIV 11-15) were exposed to 10 mM BSO, alone or with indicated doses of 2-Hydroxy-TTBA or 2-Hydroxy-TPEA. Neuronal death was analyzed 24 hr later by measuring levels of LDH released into the bathing medium, mean±SEM (n=9-12 culture wells per condition). *, Significant difference from BSO alone, p<0.05 using ANOVA and Student-Newman-Keuls test.
as §1
Mouse cortical cell cultures (DIV 11-15) were exposed to 30 μM Fe^2+ or 10 mM BSO, alone or in the presence of 1 μM 2-hydroxy TTBA, 10-100 μM vitamin E, or 5 mM Li^+. Neuronal death was analyzed 24 h later by measuring LDH efflux in the bathing media (mean±SEM, n=12). *, Significant difference from the relevant control (Fe^2+ or BSO alone), p<0.05 using ANOVA and Student-Newman-Keuls test.
as §2, with “atmosphere. Plating media consist of Eagles minimal essential media (MEM, Earles salts, supplied glutamine-free) supplemented with 5% horse serum, 5% fetal bovine serum, 26.5 mM bicarbonate, 2 mM glutamine, and 21 mM glucose.” for “atmosphere.”
After 7-8 days in vitro (DIV 7-8), 10 μM cytosine arabinofuranoside (Ara-C) was included to halt overgrowth of glia. The drug treatment was carried on DIV 11-15 cortical cell culture. Overall neuronal cell injury was assessed by measuring amount of lactate dehydrogenase (LDH) released into the bathing medium 24 hr after neurotoxic insults as previously described (Koh and Choi, J Neurosci Methods 20:83-90, 1987).
Oxidative stress was induced by exposing mixed cortical cell cultures containing neurons and glia (DIV 11-15) to 50 μM FeCl2, a hydroxyl radical-producing transition metal via a Fenton reaction, or 10 mM DL-buthionine-[S,R]-sulfoximine (BSO), a glutathione depleting agent. Widespread neuronal death was observed 24 hours later. […] Administration of vitamin E prevented Fe^2+-induced free radical neurotoxicity at higher doses. This implies that 2-Hydroxy-TTBA or 2-Hydroxy-TPEA is a potent neuroprotectant against oxidative stress.

[3] = system: cortical cell cultures containing neurons and glia; assay: cyclosporine A or calyculin A-induced neuronal cell apoptosis in cortical cell cultures; type: cell-based, mouse; settings: 20 μM cyclosporine A, 24 hr; 100 μM Vitamin E, 1 μM 2-hydroxy-TTBA, 1 μM 2-hydroxy-TPEA
Method: Mouse cortical cell cultures (DIV 10-12) were exposed to 20 μM cyclosporine A or 10 nM calculin A, alone or with inclusion of 0.3-30 mM Li. Neuronal death was analyzed 24-28 hr later by measuring levels of LDH released into the bathing medium, mean±SEM (n=9-12 culture wells per condition).
Mouse cortical cell cultures (DIV 10-12) were exposed to 20 μM cyclosporine A, alone or with 100 μM Vitamin E, 1 μM 2-hydroxy-TTBA, or 1 μM 2-hydroxy-TPEA. Neuronal death was analyzed 24 hr later by measuring levels of LDH released into the bathing medium, mean±SEM (n=9-12 culture wells per condition).
Cortical cell cultures containing neurons and glia at 10-12 days in vitro (DIV 10-12) were exposed to 20 μM cyclosporine A (CsA) or 10 nM caliculin A (cal A). Neurons underwent widespread apoptosis 24 hr later as previously reported (McDonald et al., 1996; Ko et al., 2000). […] This implies that Li^+ and the neuroprotective drugs (vitamin E, trolox, BAS, CBAS, FBAS, TBAS, PBAS, MBAS, NPAA, NPPAA, 2-Hydroxy-TTBA, and 2-Hydroxy-TPEA) selectively prevent neuronal cell apoptosis and free radical-mediated necrosis, respectively.

[4] = DPPH free radical scavenging; type: biochemical
Description: Free radical scavenging activity of chemical 01 was directly evaluated with 1,1-diphenyl-2-picrylhydrazil (DPPH, a stable free radical).

G93A mouse = assay: oxidative toxicity in G93A mouse (nitrotyrosine immunostaining); type: in vivo; settings: G93A mice at ages of 10 weeks
Method: Reactive oxygen species (ROS) produced in progress of ALS disease was evaluated in G93A mouse.

NO = assay: LPS-induced NO in mesencephalic cultures; type: cell-based; settings: 5 ng/ml LPS; 0-100 uM; 24 hours
Method: Mesencephalic nerve cell cultures were pre-treated with 5 ng/ml of LPS for 30 minutes to make a cull culture model of Parkinson's disease, and then 0-100 uM of chemical 01 were added. The level of NO was evaluated 24 hours after administration of chemical 01, and the level of TNF-a was evaluated 3 hours after administration of chemical 01 (mean±SEM, n=7-12 culture well/each group).

Row | Compound | Fe^2+-induced free radical neurotoxicity, effect in words [1] | IC50 [1] [nM] | BSO-induced free radical neurotoxicity, effect in words [2] | cyclosporine A-induced neuronal cell apoptosis, effect in words [3] | IC50 [4] [nM] | fluorescence intensity of nitrotyrosine (oxidative toxicity) in motor neurons (G93A mouse) | increase of NO caused by LPS (NO) | Fe^2+-induced neuronal death (oxidative stress), effect in words ([1]; listed as 2-hydroxy TTBA) | Fe^2+-induced neuronal death (oxidative stress), effect in words ([1]; listed as 2-hydroxy-TTBA) | neuroprotective effect against Fe^2+-induced oxidative neuronal death relative to vitamin E ([1]; higher than vitamin E) [times] | BSO-induced neuronal death (oxidative stress), effect in words ([2]; listed as 2-hydroxy TTBA) | BSO-induced neuronal death (oxidative stress), effect in words ([2]; listed as 2-hydroxy-TTBA)
1 | O=C(O)c1cc(NCCc2ccc(C(F)(F)F)cc2)ccc1O [chemical 01, 2-Hydroxy-5-[2-(4-trifluoromethyl-phenyl)-ethylamino]-benzoic acid] | nearly completely blocked | 99 | nearly completely blocked | not attenuated; also recorded: do not attenuate | 9550 | decreased | dose-dependent manner | – | – | – | – | –
2 | O=C(O)c1cc(NCc2c(F)c(F)c(C(F)(F)F)c(F)c2F)ccc1O [2-Hydroxy-TTBA, 2-hydroxy-5-(2,3,5,6-tetrafluoro-4-trifluoromethyl-benzylamino)-benzoic acid] | nearly completely blocked | 110 | nearly completely blocked | not attenuated; also recorded: do not attenuate | – | – | – | prevents oxidative stress | completely blocked | 220 | prevents oxidative stress | completely blocked
